Data set [1] in a line: Human plasma protein binding. The format is in vitro ADME. The settings on record: Table 1.
Data set [2] in a line: Mouse pharmacokinetics, plasma and brain exposure. The format is in vivo, female BALB/c mice. The settings on record: 10 mg/kg i.p., for 4 h.
Data set [3] concerns HepG2 cells. The data set can be described thus: HepG2 toxicity assay. The format is cell-based. To be noted: host cell toxicity.

The values that follow come from article PMC5346991 (ACS Medicinal Chemistry Letters, 2017).

Take `O=S(=O)(c1ccc(-c2ccc3nccc(Nc4ccc(OCc5cccc(F)c5)cc4)c3c2)cc1)N1CCOCC1` [Compound 3]: the “protein binding (% free)” value in data set [1] is reported as less than 0.03 % free.
Turning to `O=S(=O)(c1ccc(-c2ccc3nccc(Nc4ccncn4)c3c2)cc1)N1CCOCC1` [Compound 13j, 6-(4-(morpholinosulfonyl)phenyl)-N-(pyrimidin-4-yl)quinolin-4-amine], the “plasma exposure relative to the EC50” value in data set [2] was more than 120 fold.
For the compound `COc1ccc(Nc2ccnc3ccc(-c4ccc(S(=O)(=O)N5CCOCC5)cc4)cc23)cc1C` [Compound 13k], the “HepG2 TC50” value in data set [3] came out at 9.0 µM.
